Data set [1] concerns alopecia patients. As to conditions: cited from earlier work.
For data set [2], the system named is murine vibrissae follicles. The experiment in a line: Hair shaft elongation of murine vibrissae follicles cultured ex vivo. More on the design: species or system C3H mice. As to conditions: exogenous FGF-5 300 ng/mL, 8 days, versus control (FIGS. 20 and 21). From the text:
Five week old male C3H mice (supplied by Japan SLC, lnc., Hamamatsu, Japan) were used for isolation of vibrissae follicles. The mice were sacrificed and the vibrissae follicles were carefully dissected from the mystacial pad. Briefly, the mystacial pad was cut into two sides (left and right). The skin cut, picked at the edge by tweezers, was washed in (i) 70% Ethanol for 30 seconds, (ii) PBS for 10 seconds, (iii) fresh PBS for 10 seconds, and (iv) another fresh PBS for 10 seconds. This washing process was repeated twice. After washing, the skin cut was placed inverted to expose the vibrissae follicles in Dulbecco's Modified Eagle's Medium (DMEM; Wako Pure Chemical, Osaka, Japan) at 37° C. Under a dissecting microscope, the surrounding tissue was removed from the follicles using tweezers, carefully so as not to destroy the structure of the follicles. The isolated follicles were then placed immediately into Williams' E medium (Life Technologies, Carlsbad, USA).
From the isolated mouse vibrissae follicles, only early anagen follicles were selected and randomized into groups with 30 follicles per group. […]
Follicles in each of the treatment and control groups were incubated at 37° C. at 5% CO2 for 8 days, while exchanging the respective culture mediums every 2 days. From Day 1, elongation of hair shafts was observed and the elongation length was measured for each hair shaft every 24 hours from Day 1 to Day 8 using a micrometer under microscope. […]
Follicles in each of the treatment and control groups were incubated at 37° C. at 5% CO2 for 5 days, while exchanging the culture medium every 3 days. From Day 1, elongation of hair shafts was observed and the elongation length was measured for each hair shaft every 24 hours from Day 1 to Day 5. using a micrometer under microscope. […]

Where only a bound is given, the exact number is not on record here.

Data on three molecules can be found in patent publication US20160374979A1, “Method of Treatment of Alopecia with Monoterpenoids” (CELLMID LIMITED, priority 2013, published 2016).

As for `Nc1cc(N2CCCCC2)nc(N)[n+]1[O-]` [Minoxidil], the “patients with irritation of the scalp (dryness, scaling, itching, redness)” value in data set [1] (2% solution) is given as “approximately 7%”.
For the molecule `CC(C)(C)NC(=O)[C@H]1CC[C@H]2[C@@H]3CC[C@H]4NC(=O)C=C[C@]4(C)[C@H]3CC[C@]12C` [finasteride, Finasteride], in data set [1] (finasteride treatment), the “balding male recipients with poor or no response” value is listed as at least 35%.

B1: FGF-5: FGF-5 protein (R&D Systems) added to follicle culture medium at 300 ng/mL (protein, UniProt P12034 21-268, looked up)
Fibroblast growth factor 5: HGEKRLAPKGQPGPAATDRNPRGSSSRQSSSSAMSSSSASSSPAASLGSQGSGLEQSSFQWSPSGRRTGSLYCRVGIGFHLQIYPDGKVNGSHEANMLSVLEIFAVSQGIVGIRGVFSNKFLAMSKKGKLHASAKFTDDCKFRERFQENSYNTYASAIHRTEKTGREWYVALNKRGKAKRGCSPRVKPQHISTHFLPRFKQSEQPELSFTVTVPEKKKPPSPIKPKIPLSAPRKNTNSVKYRLKFRFG
On to B1, for which the “rate of hair shaft elongation” value in data set [2] is listed as “slow the rate of hair shaft elongation over time”.
